The source of these data is US11000529B2, “Human papilloma virus replication inhibitors” (Icosagen Cell Factory OÜ, priority 2015, dated 2021).

Entries after “also recorded” stand apart in the source; their conditions may differ.

For data set [1], the system named is HPV18. The data set can be described thus: HPV18 initial amplification replication assay in U2OS cells (Southern Blot). As to conditions: for HPV18 replication after shRNA downregulation: 3 and 4 days after transfection, vs empty shRNA plasmid; for IC50: 120 h, read-out: IC50 of HPV18 initial amplification; for inhibition of HPV18 initial amplification: HPV18 wt minicircle, 5 days, Southern Blot, relative to DMSO. In kind it is cell-based. From the text: FIG. 2 Effect of the identified five compounds on HPV18 initial amplification. A: U2OS cells were transfected with HPV18 wt minicircle and grown in the presence of the compounds with indicated concentrations for 5 days. Genomic DNA was extracted, linearized, and digested with DpnI. HPV genome replication signals were detected using Southern Blot analyses and quantified with phosphoimager and expressed relative to vehicle control (DMSO). Approximate IC50 values are shown for each compound. Error-bars represent standard deviation from at least three independent experiment. B: U2OS cells were transfected with the expression vectors of HPV18 E1 and E2 proteins together with HPV18 URR (origin) minicircle plasmid. The cells were grown in the presence of the compounds with indicated concentrations for 24 or 48 hours. Genomic DNA was extracted, linearized and digested with DpnI. HPV URR replication signals were detected by Southern Blot analyses. DMSO serves as vehicle control and M 18URR serves as size marker.
(§1) Replication assay. The U2OS or U2OS-EBNA1 cells were transfected with 2 ug of HPV18 minicircle genome and lug of oriP plasmid (only in case of U2OS-EBNA1 cells). All the compounds were added to the media immediately after the transfection and media was changed on the third day. Replication signals were detected with Southern Blot method. Briefly, genomic DNA was extracted 3 and 4 days after the transfection with sh_RNAs or with the use of ABT-888 and 5 days after for analyses of the effects of HPV inhibitors w/wo CPT. DNA was digested with BglI and DpnI for analyses of HPV18 replication and with BstXI, ScaI and DpnI for analyses of HPV18 and oriP replication simultaneously. 3 ug of DNA was resolved in agarose gel, transferred to a nylon membrane (Membrane Solutions LLC) and hybridized with specific radioactively labeled probes. Signals were detected and quantified with Typhoon Trio+ phosphoimager (GE Healthcare) and exposed on an X-ray film (AGFA).
for compounds inhibiting initial amplification of HPV18 genome in U2OS cells. HT-screening was conducted with all the compounds in this library in 5 uM and 1 uM concentrations and it gave us 80 hits (approximately 5% of analyzed compounds). After validation of the hits on HPV18 wt genome, we found five compounds inhibiting initial amplification of HPV18 in U2OS cells (FIG. 1). To further characterize the compounds, we performed replication assay described in Example 1.

Data set [2] has as its system Tdp1. In words: Western Blot of Tdp1 after shRNA in U2OS cells. Format: cell-based. An excerpt: (§2) FIG. 4 Involvement of Tdp1 and PARP1 in HPV18 initial amplification. A: U2OS cells were transfected with HPV18 wt minicircle and sh_Tdp1 plasmid. Genomic DNA was extracted 3 and 4 days after the transfection, linearized and digested with DpnI. HPV replication signal was detected with Southern Blot analyses and B: quantified with phosphoimager. C: Western Blot analyses showing downregulation of Tdp1 protein by shRNA. D: U2OS cells were transfected with HPV18 wt minicircle and sh_PARP1 plasmid. HPV replication signal was detected with Southern Blot analyses and E: quantified with phosphoimager. F: Western Blot analyses showing downregulation of PARP1 protein by shRNA. G: U2OS cells were transfected with HPV18 wt minicircle and grown for 3 and 4 days in the presence of different concentrations of PARP1 inhibitor ABT-888. HPV replication signal was detected with Southern Blot analyses and H: quantified with phosphoimager. Error-bars represent standard deviations from at least three independent experiments.
(§3) Western Blot. The cells were lysed with Laemmli buffer (4% SDS, 20% glycerol, 120 mM Tris-Cl (pH 6.8), and 200 mM DTT) and boiled for 10 minutes at 100° C. […] Tdp1 and PARP1 were detected with their specific antibodies from Santa Cruz Biotechnology: sc-365674 and sc-56197 respectively. Tubulin (used as loading control) was detected using Sigma Aldrich antibody T9026. […]

For data set [3], the system named is HPV18. In words: Stable maintenance of HPV18 in U2OS #1.13 cells, subconfluent. In kind it is cell-based. Conditions: U2OS #1.13, subconfluent, 7 days; for HPV18 replication signal lost: compared to DMSO control. On the procedure: (§4) FIG. 3 Effect of compounds on stable maintenance and vegetative amplification of HPV18. A: U2OS #1.13 cells were grown in subconfluent conditions in the presence of the identified five compounds for 7 days. Genomic DNA was extracted, linearized and HPV replication signal was detected by Southern Blot and B: quantified by phosphoimager. C: U2OS #1.13 were seeded and grown for 5 days without splitting. On the 5th day indicated concentrations of compounds were added to the media and the cells were grown for additional 7 days without splitting. On the 12th day genomic DNA was extracted, linearized and HPV replication signal was detected by Southern Blot and D: quantified by phosphoimager. Error-bars represent standard deviations from at least two independent experiments.
Our U2OScell-based system is suitable for studying all three replication stages of various HPV subtypes. Stable maintenance phase could be monitored by maintaining HPV-positive cells in subconfluent conditions. We used HPV18 positive monoclonal U2OS cell-line #1.13 with viral copy number ˜2000. We grew the #1.13 cells in the presence of various concentration of compounds in subconfluent conditions (cells were split every three days) for 7 days. HPV18 replication signal was detected by Southern blot analyses and quantified with phosphoimager. About 50% of the signal was lost in case of compound 82269 compared to the DMSO control (FIG. 3, panel A, compare lanes 4-6 with lane 15 and panel B).

The test system of data set [4] is HPV18. In words: Vegetative amplification of HPV18 in U2OS #1.13 cells, confluent. Conditions: U2OS #1.13, confluent, compounds added on 5th day for additional 7 days. In kind it is cell-based. On the procedure: as §4
If #1.13 is grown in confluent conditions for at least 5 days, vegetative amplification of HPV genome is turned on. We seeded equal amounts of cells onto plates and grew them for 5 days without splitting. On the 5th day various concentrations of compound were added and the cells were grown for additional 7 days (media was changed every two days throughout the experiment). HPV replication signal was detected by Southern Blot analyses and quantified with phosphoimager.

Data set [5] relates to HPV18. In words: HPV18 replication in U2OS-EBNA1 cells, compounds alone or with CPT. Format: cell-based. As to conditions: 5 days; for synergistic effect together with CPT on HPV18 replication: U2OS-EBNA1, with 2 nM CPT. On the procedure: FIG. 5 Synergistic effect between Camptothecin (CPT) and the identified five compounds. U2OS-EBNA1 cells were transfected with HPV18 wt and oriP plasmids and grown in the presence of indicated concentrations of the compounds alone or together with 2 nM CPT for 5 days. Genomic DNA was extracted, linearized and digested with DpnI. Both HPV18 and oriP replication signals were detected with Southern Blot and quantified by phosphoimager. […] Error-bars represent standard deviations from at least three independent experiments.
as §1
Synergistic effect of Campthotecin (CPT) and HPV18 replication inhibitors. CPT is a Topoisomerase I inhibitor that stabilizes entrapped Top1cc complexes to DNA. Since Tdp1 is responsible for cleaving entrapped Top1cc complexes from DNA, synergistic effect between CPT and Tdp1 inhibitors occurs. In the experiments shown in FIG. 5 we used U2OS cells constitutively expressing Epstein Barr virus (EBV) EBNA1 protein—U2OS-EBNA1. These cells allow to monitor HPV and EBNA1 supported oriP plasmid replication simultaneously. […] U2OS-EBNA1 cells were cotransfected with HPV18 genome and oriP plasmid and the cells were grown in the presence of various concentrations of the identified HPV inhibitors alone or together with 2 nM of CPT for 5 days, DMSO was used as vehicle control.

Data set [6] has as its target Tdp (Homo sapiens, UniProt Q9NUW8). As to conditions: known from the literature; cited from earlier work.
In data set [7] the test system is PARP1. The data set can be described thus: Western Blot of PARP1 after shRNA in U2OS cells. Format: cell-based.
Text: as §2, §3

Sequence of Tdp (Q9NUW8 whole entry): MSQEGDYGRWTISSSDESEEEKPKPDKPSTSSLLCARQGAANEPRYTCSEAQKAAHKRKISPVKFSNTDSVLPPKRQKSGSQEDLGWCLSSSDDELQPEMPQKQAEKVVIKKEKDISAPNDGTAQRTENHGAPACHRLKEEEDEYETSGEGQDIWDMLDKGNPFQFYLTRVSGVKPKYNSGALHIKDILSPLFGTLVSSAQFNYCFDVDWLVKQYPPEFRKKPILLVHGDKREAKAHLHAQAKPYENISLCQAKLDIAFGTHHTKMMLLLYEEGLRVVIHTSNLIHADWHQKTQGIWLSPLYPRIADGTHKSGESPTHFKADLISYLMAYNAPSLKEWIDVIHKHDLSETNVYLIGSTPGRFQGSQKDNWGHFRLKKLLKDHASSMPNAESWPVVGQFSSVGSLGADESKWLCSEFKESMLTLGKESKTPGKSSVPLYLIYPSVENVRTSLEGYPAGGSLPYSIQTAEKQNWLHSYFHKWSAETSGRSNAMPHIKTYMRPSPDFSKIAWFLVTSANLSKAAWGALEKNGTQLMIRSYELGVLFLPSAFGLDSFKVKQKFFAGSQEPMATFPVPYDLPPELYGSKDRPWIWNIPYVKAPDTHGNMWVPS

For “shRNA_Tdp1: Tdp1 shRNA plasmid, SEQ ID NO: 1, expression under RNA polymerase III promoter U6 (DNA GCACGATCTCTCTGAAACAAACTCGAGTTTGTTTCAGAGAGATCGT) [reference compound]”, the “HPV18 replication after shRNA downregulation” value in data set [1] was “clear decrease in HPV18 replication”. In addition, in data set [2], the Tdp1 expression result is listed as “decreased significantly”.

Take `CC(=O)OC1CCC2(C)C(CCC3C2CC(=O)C2(C)C3CC(N3CC3)C2C(C)=O)C1` (stereo not drawn) [NSC 109128]: in data set [1], the IC50 was in the range of 2.5 to 60 µM and the “inhibition of HPV18 initial amplification” value is on record as “concentration-dependent inhibition”. Also, in data set [3], the “effect on stable maintenance of HPV18” value was “clearly inhibit” and the “HPV18 replication signal lost” value is listed as “about 70%”. Further, the “effect on vegetative amplification of HPV18” value in data set [4] was “almost completely abolished amplification; also recorded: clearly inhibit”. Also, in data set [5], the “synergistic effect together with CPT on HPV18 replication” value (shortened to “synergistic effect together with CPT”) is on record as “clear concentration dependent synergistic effect; also recorded: clear synergistic inhibition”.

For `C[C@]12CC[C@H]3[C@H](CCC4=CC(=O)CC[C@@]43C)[C@@H]1CC[C@@H]2C(=O)COS(=O)(=O)c1ccc(Br)cc1` [NSC 88915], in data set [1], the IC50 lay in the range of 2.5 to 60 µM and the “inhibition of HPV18 initial amplification” value is reported as “concentration-dependent inhibition”. Moreover, in data set [3], the “effect on stable maintenance of HPV18” value is “only inhibits stable maintenance phase” and the “HPV18 replication signal lost” value is on record as “about 70%”. Moreover, the “effect on vegetative amplification of HPV18” value in data set [4] is reported as “did not have any effect”. Further, in data set [5], the “synergistic effect together with CPT” value was “clear concentration dependent synergistic effect; also recorded: clear synergistic inhibition”. Further, the Tdp inhibition entry in data set [6] is reported as “known to inhibit Tdp”.

Take “shRNA_PARP1: PARP1 shRNA plasmid, SEQ ID NO: 2, expression under RNA polymerase III promoter U6 (DNA GGACTCGCTCCGGATGGCCTTCAAGAGAGGCCATCCGGAGCGAGTCC) [reference compound]”: the “HPV18 replication after shRNA downregulation” value in data set [1] is on record as “inhibits HPV18 replication significantly”. In addition, the PARP1 expression entry in data set [7] is given as “decreased”.

For `CSc1ncc2[nH]c(C(O)c3ccccc3)nc2n1` (stereo not drawn) [NSC82269], in data set [1], the IC50 fell in the range of 2.5 to 60 µM and the “inhibition of HPV18 initial amplification” value is listed as “concentration-dependent inhibition”. Moreover, in data set [3], the “effect on stable maintenance of HPV18” value was “clearly inhibit” and the “HPV18 replication signal lost” value is listed as “About 50%”. For the same compound, the “effect on vegetative amplification of HPV18” value in data set [4] is reported as “clear concentration-dependent inhibition; also recorded: clearly inhibit”. For the same compound, the “synergistic effect together with CPT” value in data set [5] was “no synergistic effect; also recorded: does not”.

On to `CC[C@@]1(O)C(=O)OCc2c1cc1n(c2=O)Cc2cc3ccccc3nc2-1` [CPT, Camptothecin, reference compound], for which, in data set [5] (U2OS-EBNA1, 2 nM), the “HPV18 initial amplification, CPT alone” value was “did not inhibit”.

For `Cc1cc(O)cc2c1[C@H]1CC[C@]3(C)C(=O)CC[C@H]3[C@H]1C=C2` [NSC 9782], in data set [1], the IC50 was 2.5 to 60 µM and the “inhibition of HPV18 initial amplification” value was “concentration-dependent inhibition”. In addition, the “effect on stable maintenance of HPV18” value in data set [3] is listed as “no significant reduction in signal; also recorded: does not inhibit any of the later replication stages”. Besides, the “effect on vegetative amplification of HPV18” value in data set [4] is reported as “did not have any effect; also recorded: does not inhibit any of the later replication stages”. Moreover, in data set [5], the “synergistic effect together with CPT” value is reported as “clear concentration dependent synergistic effect; also recorded: clear synergistic inhibition”.

As for `C[C@]1(c2nc3c(C(N)=O)cccc3[nH]2)CCCN1` [ABT-888, veliparib, reference compound], the “HPV18 replication in presence of PARP1 inhibitor” value in data set [1] (3 and 4 days, various concentrations, vs DMSO) is recorded as “HPV18 replication is decreased”.
